Experimental data taken from BindingDB's records for doi:10.1021/acs.jmedchem.3c00963 (n/a, 2023).

Target: Dual specificity protein kinase TTK (Mus musculus) (UniProt P35761)
Test: Inhibition of mouse MPS1

Chain of Dual specificity protein kinase TTK (Mus musculus) (P35761 whole entry, looked up): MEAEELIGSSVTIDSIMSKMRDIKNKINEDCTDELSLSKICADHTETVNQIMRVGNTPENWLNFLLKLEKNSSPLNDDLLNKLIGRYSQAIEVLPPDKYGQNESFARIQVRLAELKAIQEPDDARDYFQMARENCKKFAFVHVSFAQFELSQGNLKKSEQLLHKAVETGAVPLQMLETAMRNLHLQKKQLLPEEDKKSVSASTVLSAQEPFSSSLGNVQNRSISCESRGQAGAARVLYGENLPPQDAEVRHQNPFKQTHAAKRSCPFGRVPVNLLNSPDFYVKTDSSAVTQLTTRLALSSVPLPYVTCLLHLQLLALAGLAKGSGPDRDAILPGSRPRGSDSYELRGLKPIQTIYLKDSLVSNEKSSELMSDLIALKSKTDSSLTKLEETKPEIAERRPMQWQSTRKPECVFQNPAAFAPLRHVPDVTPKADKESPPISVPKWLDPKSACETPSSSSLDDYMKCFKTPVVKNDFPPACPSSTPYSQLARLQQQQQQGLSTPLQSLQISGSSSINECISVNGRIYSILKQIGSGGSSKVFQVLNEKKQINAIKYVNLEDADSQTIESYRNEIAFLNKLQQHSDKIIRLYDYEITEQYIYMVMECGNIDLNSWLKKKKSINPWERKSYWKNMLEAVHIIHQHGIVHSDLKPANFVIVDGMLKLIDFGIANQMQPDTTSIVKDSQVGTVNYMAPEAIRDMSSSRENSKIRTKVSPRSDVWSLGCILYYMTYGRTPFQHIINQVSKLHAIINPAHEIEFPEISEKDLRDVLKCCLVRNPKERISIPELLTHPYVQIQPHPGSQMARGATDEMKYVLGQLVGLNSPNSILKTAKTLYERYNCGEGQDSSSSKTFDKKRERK

IC50 [nM]	Compound
55	CC(C)CNc1nccn2c(-c3ccc(C(=O)NC4CC4)cc3)cnc12
9	CC(C)CNc1nc(-c2cccc3ncccc23)cn2c(-c3ccc(C(=O)NC4CC4)cc3)cnc12
